Results from PMC9143880, “Improving Antimicrobial Activity and Physico-Chemical Properties by Isosteric Replacement of 2-Aminothiazole with 2-Aminooxazole” (Pharmaceuticals, 2022).
pIC50: −log10 of the molar value. Converted amounts (≈) assume the structure as drawn. Like-named read-outs stand apart in the source and are kept apart here.

Assays:
[1] = RP-UHPLC lipophilicity parameter log k’w; assay type: physicochemical; conditions: for log k’w: RP-UHPLC, acetonitrile/water, log k extrapolated to 0% acetonitrile; for logkw: experimental lipophilicity parameter
Summary of the method: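 Retention was measured once per eluent composition: subtype I at 40/45/50% and subtype II at 20/30/40% acetonitrile in water, isocratic RP-UHPLC. log k values from these runs gave the lipophilicity index log k’w.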

HepG2 cells = test: HepG2 cytotoxicity screening (CellTiter 96); assay type: cell-based, human; conditions: for pIC50: Homo sapiens, HepG2, 24 h, 24 h incubation, CellTiter 96, * above highest tested concentration, ** limited by insolubility in medium
[2] = system: Mycobacterium tuberculosis H37Ra ITM-M006710 (ATCC 9431); test: Antimycobacterial MIC, microdilution broth / Alamar Blue (resazurin); assay type: cell-based; conditions: for MIC: Mycobacterium tuberculosis
[3] = system: M. smegmatis DSM 43465 (ATCC 607); test: Antimycobacterial MIC, microdilution broth / resazurin; assay type: cell-based; conditions: Mycolicibacterium smegmatis; resazurin after 48 h; read-out: MIC M. smegmatis
[4] = system: M. aurum DSM 43999 (ATCC 23366); test: as above; assay type: cell-based; conditions: Mycolicibacterium aurum; resazurin after 72 h; read-out: MIC M. aurum
[5] = system: Staphylococcus aureus subsp. aureus CCM 4223 (ATCC 29213); test: Antibacterial microdilution broth (EUCAST); assay type: cell-based; conditions: 24h incubation; for MIC: Staphylococcus aureus, read-out: MIC SA
[6] = system: Staphylococcus aureus subsp. aureus (MRSA) CCM 4750 (ATCC 43300); test: Antibacterial microdilution broth (EUCAST); assay type: cell-based; conditions: 24h incubation; for MIC: Staphylococcus aureus, read-out: MIC MRSA
[7] = system: Staphylococcus epidermidis CCM 4418 (ATCC 12228); test: Antibacterial microdilution broth (EUCAST); assay type: cell-based; conditions: 24h incubation; for MIC: Staphylococcus epidermidis, read-out: MIC SE
[8] = system: Enterococcus faecalis CCM 4224 (ATCC 29212); test: Antibacterial microdilution broth (EUCAST); assay type: cell-based; conditions: 24h incubation; for MIC: Enterococcus faecalis, read-out: MIC EF
[9] = system: Escherichia coli CCM 3954 (ATCC 25922); test: Antibacterial microdilution broth (EUCAST); assay type: cell-based; conditions: 24h incubation; for MIC: Escherichia coli, read-out: MIC EC
[10] = system: Acinetobacter baumannii DSM 30007 (ATCC 19606); test: Antibacterial microdilution broth (EUCAST); assay type: cell-based; conditions: 24h incubation; for MIC: Acinetobacter baumannii, read-out: MIC AB
[11] = system: Pseudomonas aeruginosa CCM 3955 (ATCC 27853); test: Antibacterial microdilution broth (EUCAST); assay type: cell-based; conditions: 72h incubation; for MIC: Pseudomonas aeruginosa, read-out: MIC PA
[12] = system: bacterial MetAP (S. aureus, E. coli) vs hMetAP; design: method as in PMID 15664828; conditions: tested against S. aureus; cited from earlier work
[13] = system: Candida albicans CCM 8320 (ATCC 24433); test: Antifungal microdilution broth (EUCAST); conditions: for MIC: Candida albicans, 24 h, read-out: MIC CA; for MIC CA: 24h incubation
[14] = system: Candida krusei CCM 8271 (ATCC 6258); test: Antifungal microdilution broth (EUCAST); conditions: for MIC: Pichia kudriavzevii, 24 h, read-out: MIC CK; for MIC CK: 24h incubation
[15] = system: Candida parapsilosis CCM 8260 (ATCC 22019); test: Antifungal microdilution broth (EUCAST); conditions: for MIC: Lodderomyces parapsilosis, 24 h, read-out: MIC CP; for MIC CP: 24h incubation
[16] = system: Candida tropicalis CCM 8264 (ATCC 750); test: Antifungal microdilution broth (EUCAST); conditions: for MIC: Candida tropicalis, 24 h, read-out: MIC CT; for MIC CT: 24h incubation
[17] = system: Aspergillus fumigatus ATCC 204305; test: Antifungal microdilution broth (EUCAST); conditions: for MIC: Aspergillus fumigatus, ATCC204305, 24 h, read-out: MIC AF; for MIC AF: 24h incubation
[18] = system: Aspergillus flavus CCM 8363; test: Antifungal microdilution broth (EUCAST); conditions: for MIC: Aspergillus flavus, CCM8363, 24 h, read-out: MIC AFla; for MIC AFla: 24h incubation
[19] = system: Lichtheimia corymbifera CCM 8077; test: Antifungal microdilution broth (EUCAST); conditions: for MIC: Lichtheimia corymbifera, CCM8077, 24 h, read-out: MIC LC; for MIC LC: 24h incubation
[20] = system: Trichophyton interdigitale CCM 8377 (ATCC 9533); test: Antifungal microdilution broth (EUCAST); conditions: for MIC: Trichophyton interdigitale, 72 h, read-out: MIC TI; for MIC TI: 72h incubation
[21] = system: M. kansasii DSM 44162 (ATCC 12478); test: Antimycobacterial MIC, microdilution broth / resazurin; assay type: cell-based; conditions: Mycobacterium kansasii, read-out: MIC M. kansasii
[22] = system: Mycobacterium tuberculosis H37Ra ITM-M006710 (ATCC 9431); design: method as in PMID 30108959; conditions: cited from earlier work
[23] = system: M. avium DSM 44156 (ATCC 25291); test: Antimycobacterial MIC, microdilution broth / resazurin; assay type: cell-based, Mycobacterium avium; conditions: Mycobacterium avium; resazurin after 96 h; read-out: MIC M. avium
PC12 cells = system: PC12 cells; design: method as in PMID 19125579; conditions: acting as a PARP inhibitor; cited from earlier work
G+ and G- bacteria = system: G+ and G- bacteria; design: method as in PMID 24561667; conditions: whole cell, cited from earlier work
Escherichia coli FabH = system: Escherichia coli FabH; design: method as in PMID 24561667; conditions: cited from earlier work
[24] = 120 h, Middlebrook 7H9, resazurin after 120 h, read-out: Mtb H37Ra MIC

O=C(Nc1nccs1)c1ccccn1 [Compound 1a]
log k’w [1]: 1.857 | logkw [1]: 1.857 | pIC50 (HepG2 cells): < 3.00 | MIC [2, 24]: 31.2 µg/mL | MIC [3]: 62.5 µg/mL (≈ 305 µM) | MIC [4]: 7.81 µg/mL (≈ 38.1 µM) | MIC [5]: > 500 µM | MIC [6]: > 500 µM | MIC [7]: > 500 µM | MIC [8]: > 500 µM | MIC [9]: > 500 µM | MIC [10]: > 500 µM | MIC [11]: > 500 µM | selectivity towards bacterial MetAP over human homologue [12]: 100 fold | MIC [13]: > 500 µM | MIC [14]: 500 µM (≈ 103 µg/mL) | MIC [15]: 500 µM (≈ 103 µg/mL) | MIC [16]: > 500 µM | MIC [17]: 500 µM (≈ 103 µg/mL) | MIC [18]: > 500 µM | MIC [19]: > 500 µM | MIC [20]: 500 µM (≈ 103 µg/mL)

O=C(Nc1nc(-c2ccccc2)cs1)c1cnccn1 [Compound 17a]
log k’w [1]: 2.365 | logkw [1]: 2.365 | MIC [3]: > 250 µg/mL | MIC ([21]; resazurin after 96 h): > 50 µg/mL | MIC SA [5]: insoluble | MIC MRSA [6]: insoluble | MIC SE [7]: insoluble | MIC EF [8]: insoluble | MIC EC [9]: insoluble | MIC AB [10]: insoluble | MIC PA [11]: insoluble | Mtb H37Ra MIC [22]: >50 [11] µg/mL | MIC CA [13]: insoluble | MIC CK [14]: insoluble | MIC CP [15]: insoluble | MIC CT [16]: insoluble | MIC AF [17]: insoluble | MIC AFla [18]: insoluble | MIC LC [19]: insoluble | MIC TI [20]: insoluble

O=C(Nc1nc(-c2ccccc2)cs1)c1cnc(Cl)cn1 [Compound 18a]
log k’w [1]: 3.173 | logkw [1]: 3.173 | MIC [3]: > 500 µg/mL | MIC [23]: > 100 µg/mL | MIC ([21]; resazurin after 96 h): > 100 µg/mL | MIC SA [5]: insoluble | MIC MRSA [6]: insoluble | MIC SE [7]: insoluble | MIC EF [8]: insoluble | MIC EC [9]: insoluble | MIC AB [10]: insoluble | MIC PA [11]: insoluble | Mtb H37Ra MIC [22]: >100 [11] µg/mL | MIC CA [13]: insoluble | MIC CK [14]: insoluble | MIC CP [15]: insoluble | MIC CT [16]: insoluble | MIC AF [17]: insoluble | MIC AFla [18]: insoluble | MIC LC [19]: insoluble | MIC TI [20]: insoluble

O=C(Nc1nc(-c2ccccc2)cs1)c1ccncc1 [Compound 13a]
log k’w [1]: 2.190 | logkw [1]: 2.19 | pIC50 (HepG2 cells): < 4.00 | SI (HepG2 cells; SI = IC50 (µM) HepG2 / MICH37Ra (µM)): >3.6 | Mtb H37Ra MIC ([2]; Middlebrook 7H9, resazurin after 120 h): 7.81 µg/mL | MIC [2, 24]: 3.91 to 7.81 µg/mL | MIC ([2]; recalculated from µg/mL, read-out: MICH37Ra): 27.8 µM | MIC [3]: ≥ 500 µg/mL | MIC [4]: ≥ 500 µg/mL | MIC [23]: ≥ 500 µg/mL | MIC ([21]; 96 h): 7.81 µg/mL (≈ 27.8 µM) | MIC [5]: > 125 µM | MIC [6]: > 125 µM | MIC [7]: > 125 µM | MIC [8]: > 125 µM | MIC [9]: > 125 µM | MIC [10]: > 125 µM | MIC [11]: > 125 µM | cytoprotective effect (PC12 cells): moderate cytoprotective effect | MIC [13]: > 125 µM | MIC [14]: > 125 µM | MIC [15]: > 125 µM | MIC [16]: > 125 µM | MIC [17]: > 125 µM | MIC [18]: > 125 µM | MIC [19]: > 125 µM | MIC [20]: > 125 µM

O=C(Nc1nc(-c2ccc(Br)cc2)cs1)c1cccc(Cl)c1 [C]
MIC (G+ and G- bacteria; recalculated to µM): 7.9 to 31.8 µM | MIC (G+ and G- bacteria): 3.13 to 12.5 µg/mL | pIC50 (Escherichia coli FabH): 5.03
